In patent US12129312B2, “Peptide compound, application thereof and composition containing same” (priority 2017, dated 2024):
Numbered stars: 1 amine (or outer) side, 2 acyl side, 3 side chain; on linkers, the order of the positions; unused ones are H or OH. Square brackets hold non-standard residues; d marks the D form. Peptide text beside a SMILES is read from it. Pro(5R-Ph) = O=C(O)[C@@H]1CC[C@H](c2ccccc2)N1; Pro(4,4-F2) = O=C(O)[C@@H]1CC(F)(F)CN1; X4 = O=C([C@@H]1Cc2ccsc2CN1[*:1])[*:2]; 1Nal = N[C@@H](Cc1cccc2ccccc12)C(=O)O; 2Nal = N[C@@H](Cc1ccc2ccccc2c1)C(=O)O; Tiq1c(1S) = O=C(O)[C@H]1NCCc2ccccc21; dNMeY = CN[C@H](Cc1ccc(O)cc1)C(=O)O; NMeF = CN[C@@H](Cc1ccccc1)C(=O)O; Tic = O=C(O)[C@@H]1Cc2ccccc2CN1; dTic = O=C(O)[C@H]1Cc2ccccc2CN1; NMeL = CN[C@@H](CC(C)C)C(=O)O; NMeS = CN[C@@H](CO)C(=O)O; hSer = N[C@@H](CCO)C(=O)O; Thz = O=C(O)[C@@H]1CSCN1

What follows are compounds tested against T1, human Chemokine like receptor 1 (Homo sapiens, UniProt Q99788) (assay: Activation of Tango CMKLR1-bla U2OS cells (beta-lactamase FRET reporter)). Conditions: not given.
T1 construct: host or cells: U2OS (Tango CMKLR1-bla U2OS)
T1 sequence (Q99788 1-373): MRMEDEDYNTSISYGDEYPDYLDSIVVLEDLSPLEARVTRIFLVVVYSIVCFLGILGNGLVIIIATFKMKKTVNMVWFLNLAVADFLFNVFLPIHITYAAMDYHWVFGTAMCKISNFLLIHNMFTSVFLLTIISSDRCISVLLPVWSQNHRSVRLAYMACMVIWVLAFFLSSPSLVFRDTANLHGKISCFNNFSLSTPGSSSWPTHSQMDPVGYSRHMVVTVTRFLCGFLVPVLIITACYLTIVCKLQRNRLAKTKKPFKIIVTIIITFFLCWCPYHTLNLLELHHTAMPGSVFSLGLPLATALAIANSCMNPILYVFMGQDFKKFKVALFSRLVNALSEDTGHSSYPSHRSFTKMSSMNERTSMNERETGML
Format: cell-based
Method: The polypeptide sequences described above are the polypeptide sequences disclosed in the patent JP2010-229093A of BANYU PHARMA CO LTD: (D-Tyr)-Phe-Leu-Pro-(D-Ser)-Gln-Phe-(D-Ala)-Tic-Ser was used as a positive control (SEQ ID NO: 102).
The activation of the compound on Tango™ CMKLR1-bla U2OS cells (Invitrogen Cat. nos. K1551) was tested.
The activation of each compound in the above experiments on Tango™ CMKLR1-bla U2OS cells was determined as follows:
Day 1: Cell Seeding on Plate
2. The medium was removed, and the cells were washed with DPBS twice, followed by addition of 3 mL of 0.05% trypsin, and placed in a 37° C., 5% CO2 incubator (Thermo Fisher, Waltham, Massachusetts, USA) for 3-5 minutes. After the cells were rounded, 3-5 mL of medium (medium formula: DMEM 90%, Dialyzed FBS 10%, NEAA 0.1 mM, HEPES (pH 7.3) 25 mM, Penicillin 100 U/mL, Streptomycin 100 μg/mL) was added to terminate digestion.
2. The digested cells were transferred to a 15 mL centrifuge tube (430790, Corning), centrifuged at 1000 rpm for 5 minutes (5810R, Eppendorf, Hamburg, Germany), and the supernatant was discarded.
3. 7 mL of medium (DMEM+10% FBS) was added, blowed into a single cell suspension, counted by a cell counter, and adjusted the cell suspension to a desired cell density of 250,000/mL with the medium.
4. The cell suspension was seeded into a 384-well cell plate (Corning 3712) in 40 μL/well to make the number of cells 10000 cells/well, and 32 μL of medium was added to the blank control.
5. The incubation was performed overnight at 37° C. under 5% CO2.
Day 2: Dosing and Testing
1. Preparation of 200× Compound Plate
1.1 The test compound was formulated into a 10 mM working solution in DMSO.
1.2 45 μL of 10 mM test compound was added to the 2nd column of rows A to P in the Echo-384 well plate. The compound was subjected to a 3-fold dilution with Precision (30 μL of DMSO was added to the 3rd to 11th columns; 15 μL of the drug solution was pipetted from the 2nd column to the 3rd column, blown and evenly mixed; then 15 μL of the drug solution was pipetted from the 3rd column to the 4th column, blown and evenly mixed; the drugs was subjected to a 3-fold dilution to obtain 10 concentrations in total). The 1st and 12th columns of the Echo-384 well plate were supplemented with 30 μL of DMSO.
2. Preparation of Intermediate Plate
500 nL, i.e., 0.5 μL of the diluted compound (or DMSO) in the 200× compound plate was transferred into the corresponding position of V-bottom 384-well plate with Echo. 20 μL of medium was added to each well, centrifuged, shaken and evenly mixed. The concentration of the drugs in each well of the 2nd to 11th column of intermediate plate (i.e., 5× compound plate) were shown in following Table 4.
3.1 The cell plate was taken out from the incubator and observed under a microscope. The diluted compound or DMSO in the intermediate plate was added to the cell plate in 10 μL/well in the corresponding cell plate, and 40 μL of medium was pre-filled in each well.
3.2 The cells were incubated at 37° C. under 5% CO2 for 4 hours.
4.1 1 mM CCF4-AM, solution B, Solution C, and Solution D were used to prepare an appropriate amount of 6× detection solution. The LiveBLAzer™-FRET B/G Loading kit (K1095, Thermo Fisher, Waltham, Massachusetts, USA) kit containing CCF-4AM and solutionB, solutionC, and solutionD was also purchased from invitrogen (K1157, Thermo Fisher, Waltham, Massachusetts, USA).
4.2 The cells were observed under a microscope and the cell plate was equilibrated to room temperature.
4.3 6 μL of CCF-4AM dissolved solution A, 60 μL of solution B, 904 μL of solution C and 30 μL of solution D were pipetted in an EP tube, blown, and evenly mixed to obtain a 6× detection solution. The prepared 6× detection solution was pipetted to a 384-well plate in 10 μL/well.
Work on CC(C)C[C@@H](C(=O)N1CCC[C@H]1C(=O)N[C@H](CO)C(=O)N[C@@H](CCC(N)=O)C(=O)N[C@@H](Cc1ccccc1)C(=O)N[C@H](C)C(=O)N1Cc2ccccc2C[C@H]1C(=O)N[C@@H](CO)C(=O)O)N(C)C(=O)[C@H](Cc1cccc2ccccc12)NC(=O)[C@H](N)Cc1ccc(O)cc1 [YW-199, (D-Tyr)-1Nal-(NMe-Leu)-Pro-(D-Ser)-Gln-Phe-(D-Ala)-Tic-Ser] (H-[dY][1Nal][NMeL]P[dS]QF[dA][Tic]S-OH) yielded an EC50 of 2.9 nM.

Same assay, conditions: determination by the method of Effect Embodiment 1; read-out: EC50
CC(C)C[C@H](NC(=O)[C@H](Cc1ccccc1)NC(=O)[C@H](N)Cc1ccc(O)cc1)C(=O)N1CCC[C@H]1C(=O)N[C@H](CO)C(=O)N[C@@H](CCC(N)=O)C(=O)N[C@@H](Cc1ccccc1)C(=O)N[C@H](C)C(=O)N1CCc2ccccc2[C@H]1C(=O)N[C@@H](CO)C(=O)O [YW-150, (D-Tyr)-Phe-Leu-Pro-(D-Ser)-Gln-Phe-(D-Ala)-Ti1c-Ser-OH] (H-[dY]FLP[dS]QF[dA][Tiq1c(1S)]S-OH) gave an EC50 of 62 nM. CC(C)C[C@@H](C(=O)N1CC(F)(F)C[C@H]1C(=O)N[C@H](CO)C(=O)N[C@@H](CCC(N)=O)C(=O)N[C@@H](Cc1ccccc1)C(=O)N[C@H](C)C(=O)N1Cc2ccccc2C[C@H]1C(=O)N[C@@H](CO)C(=O)O)N(C)C(=O)[C@H](Cc1ccccc1)NC(=O)[C@H](N)Cc1ccc(O)cc1 [YW-174, (D-Tyr)-Phe-(NMe-Leu)-Pro(diF)-(D-Ser)-Gln-Phe-(D-Ala)-Tic-Ser-OH] (H-[dY]F[NMeL][Pro(4,4-F2)][dS]QF[dA][Tic]S-OH) gave an EC50 of 1.2 nM. In the case of CN[C@H](Cc1ccc(O)cc1)C(=O)N[C@@H](Cc1ccccc1)C(=O)N(C)[C@@H](CC(C)C)C(=O)N1CCC[C@H]1C(=O)N[C@H](CO)C(=O)N[C@@H](CCC(N)=O)C(=O)N[C@@H](Cc1ccc2ccccc2c1)C(=O)N[C@H](C)C(=O)N1Cc2ccccc2C[C@H]1C(=O)N[C@@H](CO)C(=O)O [YW-167, (D-NMe-Tyr)-Phe-(NMe-Leu)-Pro-(D-Ser)-Gln-2Nal-(D-Ala)-Tic-Ser-OH] (H-[dNMeY]F[NMeL]P[dS]Q[2Nal][dA][Tic]S-OH), the EC50 is reported as 0.8 nM. With CN[C@H](Cc1ccc(O)cc1)C(=O)N[C@@H](Cc1ccccc1)C(=O)N(C)[C@@H](CC(C)C)C(=O)N1CSC[C@H]1C(=O)N[C@H](CO)C(=O)N[C@@H](CCC(N)=O)C(=O)N[C@@H](Cc1cccc2ccccc12)C(=O)N[C@H](C)C(=O)N1Cc2ccccc2C[C@H]1C(=O)N(C)[C@@H](CO)C(=O)O [YW-142, (D-NMe-Tyr)-Phe-(NMe-Leu)-Thz-(D-Ser)-Gln-1Nal-(D-Ala)-Tic-(NMe-Ser)-OH] (H-[dNMeY]F[NMeL][Thz][dS]Q[1Nal][dA][Tic][NMeS]-OH; N-terminus assumed) the EC50 was 0.9 nM. CC(C)C[C@@H](C(=O)N1CSC[C@H]1C(=O)N[C@H](CO)C(=O)N[C@@H](CCC(N)=O)C(=O)N[C@@H](Cc1ccccc1)C(=O)N[C@H](C)C(=O)N1Cc2ccccc2C[C@H]1C(=O)N[C@@H](CO)C(=O)O)N(C)C(=O)[C@H](Cc1ccccc1)NC(=O)[C@H](N)Cc1ccc(O)cc1 [YW-121, (D-Tyr)-Phe-(NMe-Leu)-Thz-(D-Ser)-Gln-Phe-(D-Ala)-Tic-Ser-OH] (H-[dY]F[NMeL][Thz][dS]QF[dA][Tic]S-OH) gave an EC50 of 0.7 nM. Work on CC(C)C[C@H](NC(=O)[C@H](Cc1ccccc1)NC(=O)[C@H](N)Cc1ccc(O)cc1)C(=O)N1CCC[C@H]1C(=O)N[C@H](CO)C(=O)N[C@@H](CCC(N)=O)C(=O)N[C@@H](Cc1ccccc1)C(=O)N[C@H](C)C(=O)N1Cc2sccc2C[C@H]1C(=O)N[C@@H](CO)C(=O)O [YW-158, (D-Tyr)-Phe-Leu-Pro-(D-Ser)-Gln-Phe-(D-Ala)-TP5C-Ser-OH] (H-[dY]FLP[dS]QF[dA][X4]S-OH; N-terminus assumed) yielded an EC50 of 65 nM. With CN[C@H](Cc1ccc(O)cc1)C(=O)N[C@@H](Cc1ccccc1)C(=O)N(C)[C@@H](CC(C)C)C(=O)N1CCC[C@H]1C(=O)N[C@H](CO)C(=O)N[C@@H](CCC(N)=O)C(=O)N[C@@H](Cc1cccc2ccccc12)C(=O)N[C@H](C)C(=O)N1Cc2ccccc2C[C@H]1C(=O)N[C@@H](CO)C(=O)O [YW-168, (D-NMe-Tyr)-Phe-(NMe-Leu)-Pro-(D-Ser)-Gln-1Nal-(D-Ala)-Tic-Ser-OH] (H-[dNMeY]F[NMeL]P[dS]Q[1Nal][dA][Tic]S-OH) the EC50 was 1.2 nM. Compound CN[C@H](Cc1ccc(O)cc1)C(=O)N[C@@H](Cc1ccccc1)C(=O)N(C)[C@@H](CC(C)C)C(=O)N1CSC[C@H]1C(=O)N[C@H](CO)C(=O)N[C@@H](CCC(N)=O)C(=O)N[C@@H](Cc1ccc2ccccc2c1)C(=O)N[C@H](C)C(=O)N1Cc2ccccc2C[C@H]1C(=O)N[C@@H](CO)C(=O)O [YW-148, (D-NMe-Tyr)-Phe-(NMe-Leu)-Thz-(D-Ser)-Gln-2Nal-(D-Ala)-Tic-Ser-OH] (H-[dNMeY]F[NMeL][Thz][dS]Q[2Nal][dA][Tic]S-OH) has an EC50 of 0.5 nM. With CC(C)C[C@H](NC(=O)[C@H](Cc1ccccc1)NC(=O)[C@H](N)Cc1ccc(O)cc1)C(=O)N1[C@@H](c2ccccc2)CC[C@H]1C(=O)N[C@H](CO)C(=O)N[C@@H](CCC(N)=O)C(=O)N[C@@H](Cc1ccccc1)C(=O)N[C@H](C)C(=O)N1Cc2ccccc2C[C@H]1C(=O)N[C@@H](CO)C(=O)O [YW-112, (D-Tyr)-Phe-Leu-Pro(5Ph)-(D-Ser)-Gln-Phe-(D-Ala)-Tic-Ser-OH] (H-[dY]FL[Pro(5R-Ph)][dS]QF[dA][Tic]S-OH) the EC50 was 170 nM. C[C@@H](NC(=O)[C@H](Cc1ccccc1)NC(=O)[C@H](CCC(N)=O)NC(=O)[C@@H](CO)NC(=O)[C@@H]1CCCN1C(=O)[C@H](Cc1ccccc1)N(C)C(=O)[C@H](Cc1ccccc1)NC(=O)[C@H](N)Cc1ccc(O)cc1)C(=O)N1Cc2ccccc2C[C@H]1C(=O)N[C@@H](CO)C(=O)O [YW-100, (D-Tyr)-Phe-(NMe-Phe)-Pro-(D-Ser)-Gln-Phe-(D-Ala)-Tic-Ser-OH] (H-[dY]F[NMeF]P[dS]QF[dA][Tic]S-OH) showed an EC50 of 42 nM. CC(C)C[C@@H](C(=O)N1CCC[C@H]1C(=O)N[C@H](CO)C(=O)N[C@@H](CCC(N)=O)C(=O)N[C@@H](Cc1ccccc1)C(=O)N[C@H](C)C(=O)N1Cc2ccccc2C[C@H]1C(=O)N[C@@H](CCO)C(=O)O)N(C)C(=O)[C@H](Cc1ccccc1)NC(=O)[C@H](N)Cc1ccc(O)cc1 [YW-171, (D-Tyr)-Phe-(NMe-Leu)-Pro-(D-Ser)-Gln-Phe-(D-Ala)-Tic-HoSer-OH] (H-[dY]F[NMeL]P[dS]QF[dA][Tic][hSer]-OH) was tested, and the EC50 was 29 nM. In the case of CC(C)C[C@@H](C(=O)N1CCC[C@H]1C(=O)N[C@H](CO)C(=O)N[C@@H](CCC(N)=O)C(=O)N[C@@H](Cc1ccccc1)C(=O)N[C@H](C)C(=O)N1Cc2ccccc2C[C@@H]1C(=O)N(C)[C@@H](CO)C(=O)O)N(C)C(=O)[C@H](Cc1ccccc1)NC(=O)[C@H](N)Cc1ccc(O)cc1 [YW-182, (D-Tyr)-Phe-(NMe-Leu)-Pro-(D-Ser)-Gln-Phe-(D-Ala)-(D-Tic)-(NMe-Ser)] (H-[dY]F[NMeL]P[dS]QF[dA][dTic][NMeS]-OH), the EC50 is reported as 41 nM.
